Assay results published in ChEMBL document CHEMBL1151678, “Halicylindramides D and E, antifungal peptides from the marine sponge Halichondria cylindrata” (J Nat Prod, 1996).
Active and inactive are the calls of the source. No cut-off for these calls is given here.

Columns and labels:
[1] = test system: P388; assay: Cytotoxicity against mouse P388 cells at 5 ug/mL; assay type: functional, cell-based
[2] = test system: Umbelopsis ramanniana; assay: Antifungal activity against Mortierella ramanniana at 160 ug/disk; assay type: functional, organism-based
[3] = test system: Umbelopsis ramanniana; assay: Antifungal activity against Mortierella ramanniana at 5 ug/disk; assay type: functional, organism-based
[4] = test system: P388; assay: Cytotoxicity against mouse P388 cells; assay type: functional, cell-based

SMILES	Activity [1]	Activity [2]	Activity [3]	IC50 [4] [µg/mL]
CC(C)[C@@H](NC(=O)[C@@H]1CCCN1C(=O)[C@H](Cc1ccc(Br)cc1)NC(=O)[C@@H](C)NC=O)C(=O)N[C@H](C(=O)N[C@H](Cc1c[nH]c2ccccc12)C(=O)N[C@@H](CCCNC(=N)N)C(=O)N[C@H](CS(=O)(=O)O)C(=O)N[C@H](C(=O)N(C)[C@@H](CCC(N)=O)C(=O)N[C@H](Cc1ccccc1)C(N)=O)[C@@H](C)O)C(C)(C)C	inactive	Active	–	–
CC(C)[C@H](NC(=O)[C@H](NC(=O)[C@@H]1CCCN1C(=O)[C@H](Cc1ccc(Br)cc1)NC(=O)[C@@H](C)NC=O)C(C)C)C(=O)N[C@H](Cc1c[nH]c2ccccc12)C(=O)N[C@@H](CCCNC(=N)N)C(=O)N[C@H](CS(=O)(=O)[O-])C(=O)N[C@@H]1C(=O)N(C)[C@@H](CCC(N)=O)C(=O)N[C@H](Cc2ccccc2)C(=O)NCC(=O)N[C@H](CC(N)=O)C(=O)O[C@@H]1C.[Na+] [HALICYLINDRAMIDE D]	–	–	Active	2.1
